These results are taken from patent publication US4423056A, “5(Aminomethyl)-4,5,6,7-tetrahydro[d]thiazole containing compositions for and medical use in treating circulatory insufficiencies” (Laboratoires Jacques Logeais, priority 1979, dated 1983).

As a reminder, the LD50 is the dose expected to kill half of the subjects tested.

Data set [1] in a line: Acute toxicity in mice, LD50 oral and intraperitoneal. The settings on record: mouse, in vivo. An excerpt:
Most of the compounds of the formula (I) have low toxicity, as is apparent from following Table II in which are given the LD50 per os and i.p. in mice.

In another data set the test system is collateral arteries. Kind of data set: Acute occlusion of the femoral artery: resistance of the collateral arteries, systemic blood pressure, tissue perfusion pressure. The format is in vivo, dogs. The protocol:
Thus, with some of the compounds, there was noted an increase of the arterial rate of flow from as low a dosage as 0.1-0.5 mg/kg i.v.

[2] abbreviates: ip, read-out: Acute toxicity, intraperitoneal route LD50.
The mark [3] stands for this setting: po, per os, read-out: Acute toxicity, oral route LD50.

The structures appear in SMILES notation. Like-named read-outs stand apart in the source and are kept apart here.

As for `CNCC1CCc2ncsc2C1` (stereo not drawn) [Example 16, 6-(N--methylaminomethyl)-4,5,6,7-tetrahydro-benzo[d]thiazole], the results for the median lethal dose (LD50) in data set [1] (setting [2]) and in data set [1] (setting [3]) were 75 mg/kg and 170 mg/kg, respectively.
Taken in the same sequence, the figures for `CCCCNCC1CCc2sc(C)nc2C1` (stereo not drawn) [Example 20] were 58 mg/kg and 145 mg/kg.
Taken in the same sequence, the figures for `CNCC1CCc2scnc2C1` (stereo not drawn) [Example 5, 5-(N-Methylaminomethyl)-4,5,6,7-tetrahydro-benzo[d]thiazole] were more than 200 mg/kg and more than 200 mg/kg.
As for `Cc1nc2c(s1)CCC(CN)C2` (stereo not drawn) [Example 15, 2-methyl-5-aminomethyl-4,5,6,7-tetrahydro-benzo[d]thiazole], the LD50 in data set [1] (setting [2]) and in data set [1] (setting [3]) was more than 200 mg/kg each time.
As for `CNCC1CCc2nc(C)sc2C1` (stereo not drawn) [Example 7, 2-Methyl-6-(N-methylaminomethyl)-4,5,6,7-tetrahydrobenzo[d]thiazole], the LD50 in data set [1] (setting [2]) and in data set [1] (setting [3]) was more than 200 mg/kg in each case.
Regarding `Cc1nc2c(s1)CCC(CNC(C)C)C2` (stereo not drawn) [Example 19, 2-methyl-5-(N--isopropylamino-methyl)-4,5,6,7-tetrahydro-benzo[d]thiazole], the LD50 in data set [1] (setting [2]) and in data set [1] (setting [3]) was more than 200 mg/kg in each case.
Turning to `NCC1CCc2scnc2C1` (stereo not drawn) [Example 14, 5-aminomethyl-4,5,6,7-tetrahydro-benzo[d]thiazole], the LD50 is more than 200 mg/kg in data set [1] (setting [2]) and not below 200 mg/kg in data set [1] (setting [3]).
Taken in the same sequence, the figures for `CCCCc1nc2c(s1)CCC(CNC)C2` (stereo not drawn) [Example 12, 2-n-Butyl-5-(N-methylaminomethyl)-4,5,6,7-tetrahydrobenzo[d]thiazole] were 140 mg/kg and more than 200 mg/kg.
Regarding `NCC1CCc2ncsc2C1` (stereo not drawn) [Example 8, 6-Aminomethyl-4,5,6,7-tetrahydro-benzo[d]thiazole], the LD50 in data set [1] (setting [2]) and in data set [1] (setting [3]) was more than 200 mg/kg throughout.
Regarding `CCCCNCC1CCCc2sc(C)nc21` (stereo not drawn) [Example 18, 2-methyl-4-(N--n-butylamino-methyl)-4,5,6,7-tetrahydro-benzo[d]thiazole], the LD50 in data set [1] (setting [2]) was 58 mg/kg; in data set [1] (setting [3]), more than 200 mg/kg.
Taken in the same sequence, the figures for `Cc1nc2c(s1)CC(CN)CC2` (stereo not drawn) [Example 17, 2-methyl-6-aminomethyl-4,5,6,7-tetrahydro-benzo[d]thiazole] were more than 200 mg/kg and more than 200 mg/kg.
Consider `CCCCc1nc2c(s1)CCCC2CNC` (stereo not drawn) [Example 11, 2-n-Butyl-4-(N-methylaminomethyl)4,5,6,7-tetrahydro-benzo[d]thiazole], for which, in data set [1] (setting [2]), the LD50 turned out to be 58 mg/kg. Besides, the LD50 in data set [1] (setting [3]) was not below 200 mg/kg. In the data set on collateral arteries, the “decrease of the resistance of the collateral arteries” value is “marked decrease”, the “effect on systemic blood pressure” value was “without substantially affecting” and the “effect on tissue perfusion pressure” value is reported as “without substantially affecting”.
Turning to `CNCC1CCCc2scnc21` (stereo not drawn) [Example 2, 4-(N-Methylaminomethyl)-4,5,6,7-tetrahydro-benzo[d]thiazole], the LD50 was not below 200 mg/kg in data set [1] (setting [2]) and more than 200 mg/kg in data set [1] (setting [3]).
The matching figures for `CCNCC1CCc2nc(CC)sc2C1` (stereo not drawn) [Example 9, 2-Ethyl-6-(N-ethylaminomethyl)-4,5,6,7-tetrahydrobenzo[d]thiazole]: 120 mg/kg and more than 200 mg/kg.
Take `CNCC1CCc2sc(C)nc2C1` (stereo not drawn) [Example 6, 2-Methyl-5-(N-methylaminomethyl)-4,5,6,7-tetrahydrobenzo[d]thiazole]: the LD50 in data set [1] (setting [3]) was more than 200 mg/kg. In the data set on collateral arteries, the “decrease of the resistance of the collateral arteries” value is reported as “marked decrease”, the “effect on systemic blood pressure” value is given as “without substantially affecting” and the “effect on tissue perfusion pressure” value is on record as “without substantially affecting”.
Consider `CNCC1CCc2sc(C(C)C)nc2C1` (stereo not drawn) [Example 13, 2-Isopropyl-5-(N-methylaminomethyl)-4,5,6,7-tetrahydrobenzo[d]thiazole], for which the figures for the LD50 in data set [1] (setting [2]) and in data set [1] (setting [3]) were 140 mg/kg and more than 200 mg/kg, respectively.
Take `CCCNCC1CCc2ncsc2C1` (stereo not drawn) [Example 10, 6-(N-n-Propylaminomethyl)-4,5,6,7-tetrahydro-benzo[d]thiazole]: the LD50 is 190 mg/kg in data set [1] (setting [2]) and more than 200 mg/kg in data set [1] (setting [3]).
Taken in the same sequence, the figures for `NCC1CCCc2scnc21` (stereo not drawn) [Example 1, 4-Aminomethyl-4,5,6,7-tetrahydro-benzo[d]thiazole] were 140 mg/kg and more than 200 mg/kg.
For `Cc1nc2c(s1)CCCC2CN` (stereo not drawn) [Example 3, 2-Methyl-4-aminomethyl-4,5,6,7-tetrahydro-benzo[d]thiazole], the LD50 in data set [1] (setting [3]) is more than 200 mg/kg.
